Test results taken from publication PMC11618052, “Design, synthesis, and antiproliferative activity of new 1,2,3-triazole/quinazoline-4-one hybrids as dual EGFR/BRAF^V600E inhibitors” (RSC Advances, 2024).

What was measured:
[1] = system: four human cancer cell lines (A-549, MCF-7, Panc-1, HT-29); experiment: Antiproliferative MTT assay, mean over the four cancer cell lines; assay type: cell-based; conditions: for GI50: mean IC50 over A-549, MCF-7, Panc-1, HT-29
Experimental: (§1) The median inhibitory concentration (IC50) and GI50 (mean IC50) for the four cancer cell lines were calculated. Appendix A ^† contains more details. […]

lung cancer (A-549) = experiment: Antiproliferative MTT assay, A-549; assay type: cell-based; conditions: Homo sapiens, A549, A-549 lung cancer cells, read-out: Antiproliferative activity IC50 ± SEM, A-549
Experimental: as §1

colon cancer (HT-29) = experiment: Antiproliferative MTT assay, HT-29; assay type: cell-based; conditions: Homo sapiens, HT-29 colon cancer cells, read-out: Antiproliferative activity IC50 ± SEM, HT-29
Experimental: as §1

[2] = Cell viability MTT assay on MCF-10A normal cells; assay type: cell-based; conditions: human, MCF-10A normal mammary gland epithelial cells, MCF-10A cells, four days of incubation
Experimental: The viability of new compounds 8a–t was evaluated using the MCF-10A normal human mammary gland epithelial cell line. The cell viability of compounds 8a–t was examined using the MTT assay[36] after four days of incubation with MCF-10A cells. For more details, see Appendix A (ESI file). ^† […]
We evaluated the viability of new compounds 8a–t using the MCF-10A normal human mammary gland epithelial cell line. The cell viability of compounds 8a–t was examined using the MTT assay[36] after four days of incubation with MCF-10A cells.
4.2. Biological evaluation
4.2.1. Cytotoxic activity using MTT Assay and evaluation of IC 50
MTT assay was carried out to study the effect of compounds on mammary epithelial cells (MCF-10A). The medium in which cells were propagated contained Dulbecco's modified Eagle's medium (DMEM)/ Ham's F-12 medium (1:1) supplemented with epidermal growth factor (20 ng/mL), hydrocortisone (500 ng/mL), insulin (10 μg/mL), 2 mM glutamine and 10% foetal calf serum.
After every 2-3 days, the cells were passaged using trypsin ethylenediamine tetra acetic acid (EDTA). The cells were seeded at a density of 10^4 cells mL-1 in flat-bottomed culture plates containing 96 wells each. After 24 h, medium was removed from the plates and the compounds in (in 0.1% DMSO) were added (in 200 μL medium to yield a final concentration of 0.1% v/v) to the wells of plates. A single compound was designated with four wells followed by incubation of plates for 96h at 37°C. After incubation, medium was removed completely from the plates followed by addition of MTT (0.4 mg/mL in medium) to each well and subsequent incubation of plates for 3h. MTT (along with the medium) was removed and DMSO (150μL) was added to each well of the culture plates, followed by vortexing and subsequent measurement of absorbance (at 540 nm) using microplate reader. The data are shown as percentage inhibition of proliferation in comparison with controls containing 0.1% DMSO. […]

breast cancer (MCF-7) = experiment: Antiproliferative MTT assay, MCF-7; assay type: cell-based; conditions: Homo sapiens, MCF7, MCF-7 breast cancer cells, read-out: Antiproliferative activity IC50 ± SEM, MCF-7
Experimental: as §1

[3] = system: pancreatic cancer (Panc-1); experiment: Antiproliferative MTT assay, Panc-1; assay type: cell-based; conditions: Homo sapiens, Panc-1 pancreatic cancer cells, read-out: Antiproliferative activity IC50 ± SEM, Panc-1
Experimental: as §1

BRAF^V600E = BRAF^V600E kinase inhibitory assay
Sequence of BRAF^V600E (P28028 whole entry V585E): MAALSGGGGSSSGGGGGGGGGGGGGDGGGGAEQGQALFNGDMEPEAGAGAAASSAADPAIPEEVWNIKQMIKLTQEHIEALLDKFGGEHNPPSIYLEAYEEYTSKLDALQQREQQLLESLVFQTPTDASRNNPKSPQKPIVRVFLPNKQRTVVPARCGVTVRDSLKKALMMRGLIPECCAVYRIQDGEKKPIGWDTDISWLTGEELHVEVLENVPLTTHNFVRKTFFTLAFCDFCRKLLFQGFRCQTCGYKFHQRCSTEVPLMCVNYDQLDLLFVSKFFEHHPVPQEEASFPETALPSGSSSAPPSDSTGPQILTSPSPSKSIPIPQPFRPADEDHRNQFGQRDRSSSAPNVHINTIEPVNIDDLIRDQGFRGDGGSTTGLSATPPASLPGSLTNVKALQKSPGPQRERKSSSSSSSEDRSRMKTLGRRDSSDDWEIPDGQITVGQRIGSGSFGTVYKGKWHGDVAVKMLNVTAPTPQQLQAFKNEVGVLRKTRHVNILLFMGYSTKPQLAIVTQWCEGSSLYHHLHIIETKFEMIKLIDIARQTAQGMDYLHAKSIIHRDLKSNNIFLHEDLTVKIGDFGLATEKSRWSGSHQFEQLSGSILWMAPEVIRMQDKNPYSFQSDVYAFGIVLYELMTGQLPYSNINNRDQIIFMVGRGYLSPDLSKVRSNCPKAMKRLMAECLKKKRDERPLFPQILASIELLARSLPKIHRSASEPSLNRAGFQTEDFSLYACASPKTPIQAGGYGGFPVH
Experimental: V600E mutant BRAF kinase assay was performed to investigate the activity of tested compounds against BRAF. Mouse full-length GST-tagged BRAFV600E (7.5 ng, Invitrogen, PV3849) was pre-incubated with drug (1 µL) and assay dilution buffer (4 µL) for 60 min at 25 °C. In assay dilution buffer, a solution (5 µL) containing MgCl2 (30 mM), ATP (200 µM), recombinant human full length (200 ng) and N-terminal His-tagged MEK1 (Invitrogen) was added to start the assay, subsequent to incubation for 25 min at 25 °C. The assay was stopped using 5X protein denaturing buffer (LDS) solution (5 µL). To further denature the protein, heat (70° C) was applied for 5 min.
10 µL of each reaction was loaded into the precast plates and electrophoresis was allowed to proceed. After completion of electrophoresis, the front part of the precast gel plate (holding hot ATP) was cut and afterwards cast-off. The dried gel was developed using a phosphor screen. A

EGFR = target: T1, EGFR (Homo sapiens, UniProt P00533); experiment: EGFR-TK inhibitory assay; assay type: biochemical; conditions: read-out: EGFR inhibition IC50 ± SEM
T1 construct: 645–1186; His6 (N); made in house; host or cells: Sf-9 insect cells (baculovirus; pBlueBacHis2B / pFASTBacHTc)
T1 sequence (P00533 669-1210): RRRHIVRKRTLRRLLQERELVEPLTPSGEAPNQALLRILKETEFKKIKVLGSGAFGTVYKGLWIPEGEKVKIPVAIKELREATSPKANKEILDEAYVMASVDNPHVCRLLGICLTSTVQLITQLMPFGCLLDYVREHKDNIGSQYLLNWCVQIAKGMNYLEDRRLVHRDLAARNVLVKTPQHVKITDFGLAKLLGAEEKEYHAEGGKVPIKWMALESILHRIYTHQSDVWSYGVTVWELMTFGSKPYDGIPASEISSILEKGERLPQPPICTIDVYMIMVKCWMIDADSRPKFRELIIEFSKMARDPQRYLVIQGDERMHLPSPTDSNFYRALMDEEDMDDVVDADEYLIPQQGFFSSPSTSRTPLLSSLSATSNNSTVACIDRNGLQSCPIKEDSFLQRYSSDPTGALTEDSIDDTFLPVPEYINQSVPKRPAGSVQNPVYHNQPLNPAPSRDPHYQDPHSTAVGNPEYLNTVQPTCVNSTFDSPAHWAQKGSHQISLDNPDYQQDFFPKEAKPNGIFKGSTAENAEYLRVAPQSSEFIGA
Experimental: Sf-9 cells were infected for 72h for protein expression. […]
centrifugation for 20 min.
Histidine-linked proteins were first eluted with 250 and then […]
using wash buffer. Europium-tagged antiphosphotyrosine antibody (75 µL, 400 ng) was added to each well followed by incubation of 1h and then washing of the plates using buffer. The enhancement solution was added to each well and the signal was recorded at excitation and […]
The autophosphorylation percentage inhibition by compounds was calculated using the following equation: […]

Structure (SMILES) | GI50 ([1]; Homo sapiens) [nM] | IC50 (lung cancer (A-549)) [nM] | IC50 (colon cancer (HT-29)) [nM] | IC50 (breast cancer (MCF-7)) [nM] | IC50 [3] [nM] | Fold less potent than compound 8g (GI50) ([1]; GI50 versus methoxy derivative 8g) | IC50 (BRAF^V600E) [nM] | IC50 (EGFR) [nM] | GI50 [1] [nM] | viability at 4 days, 50 µM [2] [%]
O=c1c2ccccc2nc(SCc2cn(-c3ccccc3)nn2)n1-c1ccccc1 [Compound 8a, 2-(((1-Phenyl-1H-1,2,3-triazol-4-yl)methyl)thio)-3-phenyl quinazolin-4(3H)-one] | 61 | 61 ± 5 | 64 ± 5 | 56 ± 5 | 64 ± 5 |  |  |  |  | 89
O=c1c2ccccc2nc(SCc2cn(-c3ccc(Cl)cc3)nn2)n1-c1ccccc1 [Compound 8b, 2-(((1-(4-Chlorophenyl)-1H-1,2,3-triazol-4-yl)methyl)thio)-3-phenyl quinazolin-4(3H)-one] | 41 | 40 ± 3 | 44 ± 3 | 36 ± 3 | 42 ± 3 |  |  |  |  | 90
Cc1ccc(-n2c(SCc3cn(-c4ccccc4)nn3)nc3ccccc3c2=O)cc1 [Compound 8e, 2-(((1-Phenyl-1H-1,2,3-triazol-4-yl)methyl)thio)-3-(p-tolyl)quinazolin-4(3H)-one] | 89 | 88 ± 8 | 92 ± 8 | 85 ± 8 | 92 ± 8 | 4 |  |  |  | 90
Cc1ccc(-n2c(SCc3cn(-c4ccc(Cl)cc4)nn3)nc3ccccc3c2=O)cc1 [Compound 8f, 2-(((1-(4-Chlorophenyl)-1H-1,2,3-triazol-4-yl)methyl)thio)-3-(p-tolyl)quinazolin-4(3H)-one] | 37 | 37 ± 3 | 39 ± 3 | 34 ± 3 | 38 ± 3 |  | 69 ± 5 | 89 ± 5 |  | 87
Cc1cccc(-n2c(SCc3cn(-c4ccccc4)nn3)nc3ccccc3c2=O)c1 [Compound 8i, 2-(((1-Phenyl-1H-1,2,3-triazol-4-yl)methyl)thio)-3-(m-tolyl)quinazolin-4(3H)-one] | 65 | 65 ± 5 | 68 ± 6 | 59 ± 5 | 68 ± 6 |  |  |  |  | 90
Cc1cccc(-n2c(SCc3cn(-c4ccc(Cl)cc4)nn3)nc3ccccc3c2=O)c1 [Compound 8j, 2-(((1-(4-Chlorophenyl)-1H-1,2,3-triazol-4-yl)methyl)thio)-3-(m-tolyl)quinazolin-4(3H)-one] | 33 | 29 ± 2 | 30 ± 2 | 26 ± 2 | 31 ± 2 |  | 61 ± 5 | 78 ± 5 | 29 | 87
CCn1c(SCc2cn(-c3ccccc3)nn2)nc2ccccc2c1=O [Compound 8m, 2-(((1-Phenyl-1H-1,2,3-triazol-4-yl)methyl)thio)-3-ethyl quinazolin-4(3H)-one] | 72 | 72 ± 6 | 74 ± 6 | 68 ± 6 | 74 ± 6 |  |  |  |  | 90
CCn1c(SCc2cn(-c3ccc(Cl)cc3)nn2)nc2ccccc2c1=O [Compound 8n, 2-(((1-(4-Chlorophenyl)-1H-1,2,3-triazol-4-yl)methyl)thio)-3-ethyl quinazolin-4(3H)-one] | 76 | 75 ± 6 | 79 ± 6 | 71 ± 6 | 78 ± 6 |  |  |  |  | 92
C=CCn1c(SCc2cn(-c3ccc(Cl)cc3)nn2)nc2ccccc2c1=O [Compound 8r, 2-(((1-(4-Chlorophenyl)-1H-1,2,3-triazol-4-yl)methyl)thio)-3-allyl quinazolin-4(3H)-one] | 80 | 79 ± 6 | 84 ± 7 | 75 ± 6 | 81 ± 7 |  |  |  |  | 90
C#Cc1cccc(Nc2ncnc3cc(OCCOC)c(OCCOC)cc23)c1 [Erlotinib, reference compound] |  | 30 ± 3 | 30 ± 3 | 40 ± 3 | 30 ± 3 |  |  |  |  | 

The remaining compounds from weak to strong by GI50 ([1]; Homo sapiens), led by results:

GI50 ([1]; Homo sapiens) [nM] | IC50 (lung cancer (A-549)) [nM] | IC50 (colon cancer (HT-29)) [nM] | IC50 (breast cancer (MCF-7)) [nM] | IC50 [3] [nM] | Fold less potent than compound 8g (GI50) ([1]; GI50 versus methoxy derivative 8g) | IC50 (BRAF^V600E) [nM] | IC50 (EGFR) [nM] | GI50 [1] [nM] | Structure (SMILES) | viability at 4 days, 50 µM [2] [%]
94 | 93 ± 8 | 96 ± 8 | 89 ± 8 | 96 ± 8 |  |  |  |  | C=CCn1c(SCc2cn(-c3ccccc3)nn2)nc2ccccc2c1=O [Compound 8q, 2-(((1-Phenyl-1H-1,2,3-triazol-4-yl)methyl)thio)-3-allyl quinazolin-4(3H)-one] | 87
85 | 84 ± 7 | 87 ± 7 | 80 ± 7 | 87 ± 7 |  |  |  |  | C=CCn1c(SCc2cn(-c3ccc(C)cc3)nn2)nc2ccccc2c1=O [Compound 8t, 2-(((1-(p-Tolyl)-1H-1,2,3-triazol-4-yl)methyl)thio)-3-allyl quinazolin-4(3H)-one] | 90
82 | 82 ± 7 | 85 ± 7 | 77 ± 7 | 84 ± 7 |  |  |  |  | CCn1c(SCc2cn(-c3ccc(C)cc3)nn2)nc2ccccc2c1=O [Compound 8p, 2-(((1-(p-Tolyl)-1H-1,2,3-triazol-4-yl)methyl)thio)-3-ethylquinazolin-4(3H)-one] | 86
70 | 69 ± 5 | 74 ± 6 | 63 ± 5 | 74 ± 6 |  |  |  |  | CCn1c(SCc2cn(-c3ccc(OC)cc3)nn2)nc2ccccc2c1=O [Compound 8o, 2-(((1-(4-Methoxyphenyl)-1H-1,2,3-triazol-4-yl)methyl)thio)-3-ethyl quinazolin-4(3H)-one] | 89
57 | 57 ± 5 | 59 ± 5 | 53 ± 4 | 59 ± 5 |  |  |  |  | C=CCn1c(SCc2cn(-c3ccc(OC)cc3)nn2)nc2ccccc2c1=O [Compound 8s, 2-(((1-(4-Methoxyphenyl)-1H-1,2,3-triazol-4-yl)methyl)thio)-3-allyl quinazolin-4(3H)-one] | 91
53 | 53 ± 4 | 56 ± 4 | 48 ± 4 | 56 ± 4 |  |  |  |  | Cc1ccc(-n2cc(CSc3nc4ccccc4c(=O)n3-c3ccccc3)nn2)cc1 [Compound 8d, 2-(((1-(p-Tolyl)-1H-1,2,3-triazol-4-yl)methyl)thio)-3-phenylquinazolin-4(3H)-one] | 89
47 | 47 ± 3 | 49 ± 3 | 42 ± 3 | 49 ± 3 |  |  |  |  | COc1ccc(-n2cc(CSc3nc4ccccc4c(=O)n3-c3ccccc3)nn2)cc1 [Compound 8c, 2-(((1-(4-Methoxyphenyl)-1H-1,2,3-triazol-4-yl)methyl)thio)-3-phenylquinazolin-4(3H)-one] | 86
43 | 42 ± 3 | 45 ± 3 | 39 ± 3 | 46 ± 3 |  |  |  |  | COc1ccc(-n2cc(CSc3nc4ccccc4c(=O)n3-c3cccc(C)c3)nn2)cc1 [Compound 8k, 2-(((1-(4-Methoxyphenyl)-1H-1,2,3-triazol-4-yl)methyl)thio)-3-(m-tolyl)quinazolin-4(3H)-one] | 85
33 | 33 ± 2 | 35 ± 2 | 29 ± 2 | 36 ± 2 |  | 64 ± 5 | 83 ± 5 |  | Cc1ccc(-n2cc(CSc3nc4ccccc4c(=O)n3-c3cccc(C)c3)nn2)cc1 [Compound 8l, 2-(((1-(p-Tolyl)-1H-1,2,3-triazol-4-yl)methyl)thio)-3-(m-tolyl)quinazolin-4(3H)-one] | 87
